Measured values reported in BindingDB's records for doi:10.1016/j.ejmech.2020.112373 (Newlink Genetics, 2020).
pIC50: −log10 of the molar value.

Key:
[1] = target: Solute carrier family 22 member 2, OCT2 (Homo sapiens) (UniProt O15244); assay: Inhibition of OCT2 (unknown origin) expressed in HEK293 cells
[2] = target: Solute carrier family 22 member 1, OCT1 (Homo sapiens) (UniProt O15245); assay: Inhibition of OCT1 (unknown origin) expressed in HEK293 cells
Chain of Solute carrier family 22 member 1, OCT1 (Homo sapiens) (O15245 whole entry, looked up): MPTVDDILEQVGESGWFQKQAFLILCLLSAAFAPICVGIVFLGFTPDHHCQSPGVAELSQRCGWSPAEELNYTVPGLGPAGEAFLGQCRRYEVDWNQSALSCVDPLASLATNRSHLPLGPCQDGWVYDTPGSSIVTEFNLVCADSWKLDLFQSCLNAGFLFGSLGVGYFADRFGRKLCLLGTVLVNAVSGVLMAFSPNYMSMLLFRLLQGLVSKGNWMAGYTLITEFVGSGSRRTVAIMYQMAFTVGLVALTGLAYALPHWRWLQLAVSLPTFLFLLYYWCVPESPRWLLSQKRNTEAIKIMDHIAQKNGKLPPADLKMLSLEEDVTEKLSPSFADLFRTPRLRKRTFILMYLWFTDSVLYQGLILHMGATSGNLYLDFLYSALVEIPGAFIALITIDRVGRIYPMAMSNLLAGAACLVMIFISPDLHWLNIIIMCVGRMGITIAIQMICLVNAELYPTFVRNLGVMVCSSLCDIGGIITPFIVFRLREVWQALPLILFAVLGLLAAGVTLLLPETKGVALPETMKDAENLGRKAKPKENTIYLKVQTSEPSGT

Chain of Solute carrier family 22 member 2, OCT2 (Homo sapiens) (O15244 whole entry, looked up): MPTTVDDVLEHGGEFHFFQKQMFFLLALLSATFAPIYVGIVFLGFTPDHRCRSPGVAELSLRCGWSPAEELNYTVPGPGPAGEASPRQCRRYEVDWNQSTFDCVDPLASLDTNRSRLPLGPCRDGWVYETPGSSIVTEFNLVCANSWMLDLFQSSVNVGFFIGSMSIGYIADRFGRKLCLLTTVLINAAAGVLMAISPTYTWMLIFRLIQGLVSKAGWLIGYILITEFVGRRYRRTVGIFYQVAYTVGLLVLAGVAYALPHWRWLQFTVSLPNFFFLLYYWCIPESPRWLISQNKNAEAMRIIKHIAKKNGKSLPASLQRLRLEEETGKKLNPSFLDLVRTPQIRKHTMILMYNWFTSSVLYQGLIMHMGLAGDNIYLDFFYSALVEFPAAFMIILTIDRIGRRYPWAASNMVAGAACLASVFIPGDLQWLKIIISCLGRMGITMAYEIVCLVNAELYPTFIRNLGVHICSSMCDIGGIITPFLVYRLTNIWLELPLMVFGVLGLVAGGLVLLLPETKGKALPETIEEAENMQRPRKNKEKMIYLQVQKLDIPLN

pIC50 [1]: < 4.30
pIC50 [2]: < 4.30
Structure (SMILES): CCOC(=O)[C@@H](Cc1cn(C)c2ccccc12)NC(=O)[C@@H](N)CC(C)C
